Values of other authors, collected in patent US20060246505A1, “Modulation of the synthesis of insulin” (priority 2003, published 2006).

Test system: signalling pathways that trigger transcription
Conditions: glucose-triggered resynthesis of insulin in beta cells; prior-art statement

C[S+]([O-])c1ccc(-c2nc(-c3ccncc3)c(-c3ccc(F)cc3)[nH]2)cc1 (stereo not shown) [SB 203580]
inhibition of the signalling pathways that trigger transcription (resynthesis of insulin): can be inhibited
